Measured values from patent publication US10668067B2, “Pyridine sulfonamides” (AMGEN INC., priority 2016, dated 2020).

Target: human Nav1.7 (Homo sapiens (Human), UniProt Q15858)
Assay: Nav 1.7 In Vitro PX Assay (PatchXpress whole cell voltage clamp)
Type: cell-based
Settings: in-vitro Nav 1.7 PX data
How it was run: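 Partially inactivated channels (20–50% inactivation at holding potential) probed by 20 ms pulses to −10 mV repeated at 0.1 Hz, in stable human Nav1.7 HEK293 cells.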

Sequence of human Nav1.7 (Q15858 whole entry): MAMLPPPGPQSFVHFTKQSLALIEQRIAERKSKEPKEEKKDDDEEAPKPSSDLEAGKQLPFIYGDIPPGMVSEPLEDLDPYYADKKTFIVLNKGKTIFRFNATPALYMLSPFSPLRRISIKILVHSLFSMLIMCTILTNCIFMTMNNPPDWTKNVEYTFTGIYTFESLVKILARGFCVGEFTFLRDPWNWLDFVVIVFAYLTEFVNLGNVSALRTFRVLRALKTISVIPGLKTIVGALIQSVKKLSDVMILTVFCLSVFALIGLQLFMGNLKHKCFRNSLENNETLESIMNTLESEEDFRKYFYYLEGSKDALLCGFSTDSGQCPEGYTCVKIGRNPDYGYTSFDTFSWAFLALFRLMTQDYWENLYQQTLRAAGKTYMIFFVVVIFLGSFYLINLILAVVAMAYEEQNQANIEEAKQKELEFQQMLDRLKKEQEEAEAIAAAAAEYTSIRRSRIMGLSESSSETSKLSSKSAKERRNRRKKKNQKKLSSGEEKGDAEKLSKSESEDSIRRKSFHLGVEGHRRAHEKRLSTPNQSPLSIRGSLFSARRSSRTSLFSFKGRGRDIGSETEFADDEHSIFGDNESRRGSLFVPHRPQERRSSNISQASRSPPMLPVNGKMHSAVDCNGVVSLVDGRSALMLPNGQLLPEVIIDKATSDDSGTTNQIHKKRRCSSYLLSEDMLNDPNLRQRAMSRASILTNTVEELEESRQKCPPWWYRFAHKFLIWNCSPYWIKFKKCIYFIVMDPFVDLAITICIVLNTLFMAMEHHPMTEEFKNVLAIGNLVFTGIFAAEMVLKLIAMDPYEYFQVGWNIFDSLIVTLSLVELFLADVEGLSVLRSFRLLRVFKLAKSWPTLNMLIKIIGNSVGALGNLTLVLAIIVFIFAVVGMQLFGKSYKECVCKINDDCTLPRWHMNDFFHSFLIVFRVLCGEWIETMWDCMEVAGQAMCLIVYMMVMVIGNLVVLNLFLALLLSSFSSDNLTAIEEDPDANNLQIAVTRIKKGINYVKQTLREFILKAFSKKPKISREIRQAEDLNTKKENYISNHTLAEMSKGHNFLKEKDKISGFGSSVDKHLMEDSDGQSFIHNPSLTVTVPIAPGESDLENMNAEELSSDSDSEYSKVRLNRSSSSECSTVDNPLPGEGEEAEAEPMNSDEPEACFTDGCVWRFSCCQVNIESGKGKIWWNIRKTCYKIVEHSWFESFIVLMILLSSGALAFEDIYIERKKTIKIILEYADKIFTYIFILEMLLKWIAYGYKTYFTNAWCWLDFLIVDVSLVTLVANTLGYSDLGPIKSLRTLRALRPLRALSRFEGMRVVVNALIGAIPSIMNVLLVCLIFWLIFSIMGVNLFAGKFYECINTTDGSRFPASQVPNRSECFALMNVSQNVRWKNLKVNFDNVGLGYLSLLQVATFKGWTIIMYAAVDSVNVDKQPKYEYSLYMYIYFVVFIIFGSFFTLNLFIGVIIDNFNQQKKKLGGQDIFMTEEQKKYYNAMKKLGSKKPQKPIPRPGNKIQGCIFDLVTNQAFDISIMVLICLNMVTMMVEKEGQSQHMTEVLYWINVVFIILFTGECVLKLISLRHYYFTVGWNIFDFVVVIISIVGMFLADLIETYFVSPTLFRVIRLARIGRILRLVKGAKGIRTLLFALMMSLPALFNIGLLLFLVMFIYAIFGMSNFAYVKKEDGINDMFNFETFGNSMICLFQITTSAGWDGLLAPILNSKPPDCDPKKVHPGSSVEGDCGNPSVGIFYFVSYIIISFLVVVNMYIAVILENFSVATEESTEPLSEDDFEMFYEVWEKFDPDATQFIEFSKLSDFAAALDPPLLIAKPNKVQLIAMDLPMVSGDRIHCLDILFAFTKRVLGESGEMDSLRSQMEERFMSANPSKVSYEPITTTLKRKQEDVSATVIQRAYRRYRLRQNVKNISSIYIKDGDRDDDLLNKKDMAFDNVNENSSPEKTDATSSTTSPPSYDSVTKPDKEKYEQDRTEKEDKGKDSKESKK

| Structure (SMILES) | IC50 [nM] |
| --- | --- |
| CNC(=O)N(c1ccc(S(=O)(=O)Nc2ncccn2)cn1)c1cc(F)c(-c2cccc(OC(F)(F)F)c2)cc1OC [Example 1-84, 6-((2-fluoro-5-methoxy-3′-(trifluoromethoxy)-4-biphenylyl)(methylcarbamoyl)amino)-N-2-pyrimidinyl-3-pyridinesulfonamide] | 62 |
| CNC(=O)N(c1ccc(S(=O)(=O)Nc2ncccn2)cn1)c1cc(F)c(-c2ccc(F)c(C(F)(F)F)c2)cc1OC [Example 1-85, 6-((2,4′-difluoro-5-methoxy-3′-(trifluoromethyl)-4-biphenylyl)(methylcarbamoyl)amino)-N-2-pyrimidinyl-3-pyridinesulfonamide] | 32 |
| CNC(=O)N(c1ccc(S(=O)(=O)Nc2ncccn2)cn1)c1cc(F)c(-c2cc(F)c(F)c(F)c2)cc1OC [Example 1-86, 6-((methylcarbamoyl)(2,3′,4′,5′-tetrafluoro-5-methoxy-4-biphenylyl)amino)-N-2-pyrimidinyl-3-pyridinesulfonamide] | 220 |
| CNC(=O)N(c1ccc(S(=O)(=O)Nc2ncccn2)cn1)c1cc(F)c(-c2ccc(F)c(OCC(F)(F)F)c2)cc1OC [Example 1-88, 6-((2,4′-difluoro-5-methoxy-3′-(2,2,2-trifluoroethoxy)-4-biphenylyl)(methylcarbamoyl)amino)-N-2-pyrimidinyl-3-pyridinesulfonamide] | 40 |
| CNC(=O)N(c1ccc(S(=O)(=O)Nc2ncccn2)cn1)c1cc(F)c(-c2ccc(Cl)c(C(F)(F)F)c2)cc1OC [Example 1-89, 6-((4′-chloro-2-fluoro-5-methoxy-3′-(trifluoromethyl)-4-biphenylyl)(methylcarbamoyl)amino)-N-2-pyrimidinyl-3-pyridinesulfonamide] | 45 |
| CONC(=O)N(c1ccc(S(=O)(=O)Nc2ccon2)cn1)c1cc(F)c(-c2cccc(C(F)(F)F)c2)cc1OC [Example 1-90, 6-((2-fluoro-5-methoxy-3′-(trifluoromethyl)-4-biphenylyl)(methoxycarbamoyl)amino)-N-3-isoxazolyl-3-pyridinesulfonamide] | 69 |
| CNC(=O)N(c1ccc(S(=O)(=O)Nc2ncccn2)cn1)c1cc(F)c(-c2ccc(F)c(Cl)c2)cc1OC [Example 2-1, 6-((3′-chloro-2,4′-difluoro-5-methoxy-4-biphenylyl)(methylcarbamoyl)amino)-N-2-pyrimidinyl-3-pyridinesulfonamide] | 18 |
| CNC(=O)N(c1ccc(S(=O)(=O)Nc2ncccn2)cn1)c1cc(F)c(-c2ccc(F)c(C(F)F)c2)cc1OC [Example 2-2, 6-((3′-(difluoromethyl)-2,4′-difluoro-5-methoxy-4-biphenylyl)(methylcarbamoyl)amino)-N-2-pyrimidinyl-3-pyridinesulfonamide] | 7 |
| CNC(=O)N(c1ccc(S(=O)(=O)Nc2cccnn2)cn1)c1cc(Cl)c(-c2ccc(F)c(OCC(F)(F)F)c2)cc1OC [Example 2-4, 6-((2-chloro-4′-fluoro-5-methoxy-3′-(2,2,2-trifluoroethoxy)-4-biphenylyl)(methylcarbamoyl)amino)-N-3-pyridazinyl-3-pyridinesulfonamide] | 54 |
| CNC(=O)N(c1ccc(S(=O)(=O)Nc2cccnn2)cn1)c1cc(Cl)c(-c2cc(F)c(F)c(F)c2)cc1OC [Example 2-5, 6-((2-chloro-3′,4′,5′-trifluoro-5-methoxy-4-biphenylyl)(methylcarbamoyl)amino)-N-3-pyridazinyl-3-pyridinesulfonamide] | 75 |
| CNC(=O)N(c1ccc(S(=O)(=O)Nc2cccnn2)cn1)c1cc(Cl)c(-c2cc(OC)nc(C(F)(F)F)c2)cc1OC [Example 2-6, 6-((5-chloro-2-methoxy-4-(2-methoxy-6-(trifluoromethyl)-4-pyridinyl)phenyl)(methylcarbamoyl)amino)-N-3-pyridazinyl-3-pyridinesulfonamide] | 26 |
| CNC(=O)N(c1ccc(S(=O)(=O)Nc2ncccn2)cn1)c1ccc(-c2ccc(F)c(OC(F)(F)F)c2)cc1OC [Example 2-7, 6-((4′-fluoro-3-methoxy-3′-(trifluoromethoxy)-4-biphenylyl)(methylcarbamoyl)amino)-N-2-pyrimidinyl-3-pyridinesulfonamide] | 4 |
| CNC(=O)N(c1ccc(S(=O)(=O)Nc2ncccn2)cn1)c1ccc(-c2ccc(F)c(C(F)(F)F)c2)cc1OC [Example 2-8, 6-((4′-fluoro-3-methoxy-3′-(trifluoromethyl)-4-biphenylyl)(methylcarbamoyl)amino)-N-2-pyrimidinyl-3-pyridinesulfonamide] | 17 |
| CNC(=O)N(c1ccc(S(=O)(=O)Nc2ncccn2)cn1)c1cc(Cl)c(-c2ccc(F)c(OC(F)(F)F)c2)cc1OC [Example 2-10, 6-((2-chloro-4′-fluoro-5-methoxy-3′-(trifluoromethoxy)-4-biphenylyl)(methylcarbamoyl)amino)-N-2-pyrimidinyl-3-pyridinesulfonamide] | 8 |
| CCCCCCCCCCCCCCc1cc(OC)c(N(C(=O)NC)c2ccc(S(=O)(=O)Nc3ncccn3)cn2)cc1F [Example 2-11, 6-(1-(5-Fluoro-2-methoxy-4-tetradecylphenyl)-3-methylureido)-N-(pyrimidin-2-yl)pyridine-3-sulfonamide] | 14 |
| CNC(=O)N(c1ccc(S(=O)(=O)Nc2nocc2C)cn1)c1cc(F)c(-c2ccc(F)c(OC(F)(F)F)c2)cc1OC [Example 2-12, 6-(1-(2,4′-difluoro-5-methoxy-3′-(trifluoromethoxy)-[1,1′-biphenyl]-4-yl)-3-methylureido)-N-(4-methylisoxazol-3-yl)pyridine-3-sulfonamide] | 63.5 |
| CNC(=O)N(c1ccc(S(=O)(=O)Nc2nocc2C)cn1)c1cc(F)c(-c2ccc(F)c(C(F)(F)F)c2)cc1OC [Example 2-13, 6-(1-(2,4′-difluoro-5-methoxy-3′-(trifluoromethyl)-[1,1′-biphenyl]-4-yl)-3-methylureido)-N-(4-methylisoxazol-3-yl)pyridine-3-sulfonamide] | 116 |
| CNC(=O)N(c1ccc(S(=O)(=O)Nc2nocc2C)cn1)c1cc(F)c(-c2ccc(F)c(OCC(F)(F)F)c2)cc1OC [Example 2-14, 6-(1-(2,4′-difluoro-5-methoxy-3′-(2,2,2-trifluoroethoxy)-[1,1′-biphenyl]-4-yl)-3-methylureido)-N-(4-methylisoxazol-3-yl)pyridine-3-sulfonamide] | 621 |
| CNC(=O)N(c1ccc(S(=O)(=O)Nc2ncccn2)cn1)c1cc(Cl)c(-c2ccc(F)c(OCC(F)(F)F)c2)cc1OC [Example 3-1, 6-((2-chloro-4′-fluoro-5-methoxy-3′-(2,2,2-trifluoroethoxy)-4-biphenylyl)(methylcarbamoyl)amino)-N-2-pyrimidinyl-3-pyridinesulfonamide] | 33 |
| CNC(=O)N(c1ccc(S(=O)(=O)Nc2cnsn2)cn1)c1cc(Cl)c(-c2ccc(F)c(OCC(F)(F)F)c2)cc1OC [Example 3-2, 6-((2-chloro-4′-fluoro-5-methoxy-3′-(2,2,2-trifluoroethoxy)-4-biphenylyl)(methylcarbamoyl)amino)-N-1,2,5-thiadiazol-3-yl-3-pyridinesulfonamide] | 31 |
| CNC(=O)N(c1ccc(S(=O)(=O)Nc2cccc(F)n2)cn1)c1cc(Cl)c(-c2ccc(F)c(OCC(F)(F)F)c2)cc1OC [Example 3-3, 6-((2-chloro-4′-fluoro-5-methoxy-3′-(2,2,2-trifluoroethoxy)-4-biphenylyl)(methylcarbamoyl)amino)-N-(6-fluoro-2-pyridinyl)-3-pyridinesulfonamide] | 73 |
| CNC(=O)N(c1ccc(S(=O)(=O)Nc2ncco2)cn1)c1cc(Cl)c(-c2ccc(F)c(OCC(F)(F)F)c2)cc1OC [Example 3-4, 6-((2-chloro-4′-fluoro-5-methoxy-3′-(2,2,2-trifluoroethoxy)-4-biphenylyl)(methylcarbamoyl)amino)-N-1,3-oxazol-2-yl-3-pyridinesulfonamide] | 53 |
| CNC(=O)N(c1ccc(S(=O)(=O)Nc2ccnc(C)n2)cn1)c1cc(Cl)c(-c2ccc(F)c(OCC(F)(F)F)c2)cc1OC [Example 3-5, 6-((2-chloro-4′-fluoro-5-methoxy-3′-(2,2,2-trifluoroethoxy)-4-biphenylyl)(methylcarbamoyl)amino)-N-(2-methyl-4-pyrimidinyl)-3-pyridinesulfonamide] | 76 |
| CNC(=O)N(c1ccc(S(=O)(=O)Nc2ccncn2)cn1)c1cc(Cl)c(-c2ccc(F)c(OCC(F)(F)F)c2)cc1OC [Example 3-6, 6-((2-chloro-4′-fluoro-5-methoxy-3′-(2,2,2-trifluoroethoxy)-4-biphenylyl)(methylcarbamoyl)amino)-N-4-pyrimidinyl-3-pyridinesulfonamide] | 51 |
| CNC(=O)N(c1ccc(S(=O)(=O)Nc2ncccn2)cn1)c1cc(Cl)c(-c2ccc(F)c(C(F)(F)F)c2)cc1OC [Example 3-7, 6-((2-chloro-4′-fluoro-5-methoxy-3′-(trifluoromethyl)-4-biphenylyl)(methylcarbamoyl)amino)-N-2-pyrimidinyl-3-pyridinesulfonamide] | 28 |
| CNC(=O)N(c1ccc(S(=O)(=O)Nc2cnsn2)cn1)c1cc(Cl)c(-c2ccc(F)c(C(F)(F)F)c2)cc1OC [Example 3-8, 6-((2-chloro-4′-fluoro-5-methoxy-3′-(trifluoromethyl)-4-biphenylyl)(methylcarbamoyl)amino)-N-1,2,5-thiadiazol-3-yl-3-pyridinesulfonamide] | 14 |
| CNC(=O)N(c1ccc(S(=O)(=O)Nc2cccc(F)n2)cn1)c1cc(Cl)c(-c2ccc(F)c(C(F)(F)F)c2)cc1OC [Example 3-9, 6-((2-chloro-4′-fluoro-5-methoxy-3′-(trifluoromethyl)-4-biphenylyl)(methylcarbamoyl)amino)-N-(6-fluoro-2-pyridinyl)-3-pyridinesulfonamide] | 53 |
| CNC(=O)N(c1ccc(S(=O)(=O)Nc2ncco2)cn1)c1cc(Cl)c(-c2ccc(F)c(C(F)(F)F)c2)cc1OC [Example 3-10, 6-((2-chloro-4′-fluoro-5-methoxy-3′-(trifluoromethyl)-4-biphenylyl)(methylcarbamoyl)amino)-N-1,3-oxazol-2-yl-3-pyridinesulfonamide] | 20 |
